# Patent US20240158446A1, “CYCLIC COMPOUND HAVING SELECTIVE INHIBITORY ACTION ON KRAS OVER HRAS AND NRAS” (CHUGAI SEIYAKU KABUSHIKI KAISHA, priority 2021, published 2024)
# Where two headings read alike, the source gives them in different places. Where a SMILES comes first, the peptide text is derived from it. Bridges are numbered along the chain shown (N, C = ends). [ ]: non-standard residue; d: D form. The star is where a group is joined. hPhe(3-Cl-4-CF3) = N[C@@H](CCc1ccc(C(F)(F)F)c(Cl)c1)C(=O)O; NPrPhe(4-CF3) = CCCN[C@@H](Cc1ccc(C(F)(F)F)cc1)C(=O)O; Abu(4,4,4-F3) = N[C@@H](CC(F)(F)F)C(=O)O; NMeGly(cPent) = CN[C@H](C(=O)O)C1CCCC1; NMeD = CN[C@@H](CC(=O)O)C(=O)O; NMeL = CN[C@@H](CC(C)C)C(=O)O; Morpholide = C1CN(*)CCO1; Ac5c = NC1(C(=O)O)CCCC1; Aze = O=C(O)[C@@H]1CCN1; Ac4c = NC1(C(=O)O)CCC1; Aib = CC(C)(N)C(=O)O; Sar = CNCC(=O)O
# Legend:
# [1] = target: GDP-bound KRAS wild-type protein (Homo sapiens, UniProt P01116); experiment: Binding to KRAS by surface plasmon resonance (SPR), Single Cycle Kinetics; settings: GDP-bound KRAS wild-type protein, read-out: KRAS KD
# [2] = target: GDP-bound NRAS wild-type protein (Homo sapiens, UniProt P01111); experiment: Binding to NRAS by surface plasmon resonance (SPR), Single Cycle Kinetics; settings: SPR, GDP-bound NRAS wild-type protein vs GDP-bound KRAS wild-type protein
# [3] = target: GDP-bound HRAS wild-type protein (Homo sapiens, UniProt P01112); experiment: Binding to HRAS by surface plasmon resonance (SPR), Single Cycle Kinetics; settings: SPR, GDP-bound HRAS wild-type protein vs GDP-bound KRAS wild-type protein
# [4] = SPR Single Cycle Kinetics, 1:1 binding model
# Sequence of GDP-bound HRAS wild-type protein (P01112 whole entry): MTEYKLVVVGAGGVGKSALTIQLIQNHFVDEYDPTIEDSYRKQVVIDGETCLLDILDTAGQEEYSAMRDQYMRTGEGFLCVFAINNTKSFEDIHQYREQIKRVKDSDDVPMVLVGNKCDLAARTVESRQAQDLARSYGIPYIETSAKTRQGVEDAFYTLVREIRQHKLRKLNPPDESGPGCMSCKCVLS
# Sequence of GDP-bound NRAS wild-type protein (P01111 whole entry): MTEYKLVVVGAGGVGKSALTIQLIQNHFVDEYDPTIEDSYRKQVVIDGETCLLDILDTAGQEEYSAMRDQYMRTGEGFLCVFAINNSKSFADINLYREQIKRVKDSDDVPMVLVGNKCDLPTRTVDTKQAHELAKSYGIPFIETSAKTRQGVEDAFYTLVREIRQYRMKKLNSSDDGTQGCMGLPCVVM
# Sequence of GDP-bound KRAS wild-type protein (P01116 whole entry): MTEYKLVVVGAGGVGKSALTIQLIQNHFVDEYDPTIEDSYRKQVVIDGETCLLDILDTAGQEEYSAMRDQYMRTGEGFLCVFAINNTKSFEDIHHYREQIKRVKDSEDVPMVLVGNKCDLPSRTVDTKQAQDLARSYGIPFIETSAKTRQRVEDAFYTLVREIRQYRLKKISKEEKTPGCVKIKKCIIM
Compound,"Kd [1, 4]",NRAS/KRAS (ratio of KD value for NRAS to KD value for KRAS) [2],HRAS/KRAS (ratio of KD value for HRAS to KD value for KRAS) [3],NRAS/KRAS (ratio of KD value with respect to NRAS to KD value with respect to KRAS) [2],HRAS/KRAS (ratio of KD value with respect to HRAS to KD value with respect to KRAS) [3],"Kd ([1]; SPR, Single Cycle Kinetics)"
"CCCN1C(=O)CN(C)C(=O)CN(C)C(=O)[C@H](CC(F)(F)F)NC(=O)[C@H](CC(C)C)N(C)C(=O)C[C@@H](C(=O)N2CCOCC2)N(C)C(=O)[C@H](C2CCCC2)N(C)C(=O)C2(CCCC2)NC(=O)[C@@H]2CCCN2C(=O)[C@H](CCc2ccc(C(F)(F)F)c(Cl)c2)NC(=O)CN(C)C(=O)[C@@H]1Cc1ccc(C(F)(F)F)cc1 [PP0249] ([NMeL][Abu(4,4,4-F3)][Sar][Sar][NPrPhe(4-CF3)][Sar][hPhe(3-Cl-4-CF3)]P[Ac5c][NMeGly(cPent)][NMeD]-Morpholide; lactam N-11)",0.69 nM,B (a compound having 3 or more and less than 10 is denoted as B),C (A compound having a KD ratio of 0.1 or more and less than 3 is denoted as C),–,–,–
CC[C@H](C)[C@@H]1NC(=O)[C@H](CC(C)C)N(C)C(=O)C[C@@H](C(=O)N2CCOCC2)N(C)C(=O)[C@H](C2CCCC2)N(C)C(=O)C2(CCCC2)NC(=O)[C@@H]2CCCN2C(=O)[C@H](CCc2cc(F)c(C(F)(F)F)c(F)c2)NC(=O)CN(C)C(=O)[C@H](Cc2ccc(C(F)(F)F)cc2)N2CCCC[C@@H](C2=O)N(C)C(=O)CNC1=O [PP0542],0.11 nM,–,–,B (a compound having 3 or more and less than 10 is denoted as B),B (a compound having 3 or more and less than 10 is denoted as B),–
CC[C@H](C)[C@@H]1NC(=O)[C@H](CC)N(C)C(=O)C[C@@H](C(=O)N2CCOCC2)N(C)C(=O)[C@H](C2CCCC2)N(C)C(=O)C2(CCCC2)NC(=O)[C@@H]2CCCN2C(=O)[C@H](CCc2cc(F)c(C(F)(F)F)c(F)c2)NC(=O)CN(C)C(=O)[C@H](Cc2ccc(C(F)(F)F)cc2)N2CCCCC[C@@H](C2=O)N(C)C(=O)CN(C)C1=O [PP0488],2.8 nM,–,–,A (a compound having 10 or more and less than 20 is denoted as A),B (a compound having 3 or more and less than 10 is denoted as B),–
C=CCN1CC(=O)N(C)[C@H]2C/C=C\CCN(C2=O)[C@@H](Cc2ccc(C)cc2)C(=O)N(C)CC(=O)N[C@@H](CCc2ccc(C(F)(F)F)c(OC)c2)C(=O)N2C[C@H](OCC)C[C@H]2C(=O)NC2(CC(C)(C)C2)C(=O)N(C)[C@@H](C2CCCC2)C(=O)N(C)[C@H](C(=O)N(C)C)CC(=O)N(C)[C@@H](CCC)C(=O)N[C@@H]([C@@H](C)CC)C1=O [PP2098],–,A (a compound having 10 or more and less than 20 is denoted as A),A (a compound having 10 or more and less than 20 is denoted as A),–,–,0.2 nM
CC[C@H](C)[C@@H]1NC(=O)[C@H](CC(C)C)N(C)C(=O)C[C@@H](C(=O)N2CCOCC2)N(C)C(=O)[C@H](C2CCCC2)N(C)C(=O)C2(CCCC2)NC(=O)[C@@H]2CC(F)(F)CN2C(=O)[C@H](CCc2cc(F)c(C(F)(F)F)c(F)c2)NC(=O)CN(C)C(=O)[C@H](Cc2ccc(C(F)(F)F)cc2)N2CCCCC[C@@H](C2=O)N(C)C(=O)CN(C)C1=O [PP0491],1.1 nM,–,–,B (a compound having 3 or more and less than 10 is denoted as B),B (a compound having 3 or more and less than 10 is denoted as B),–
CCO[C@@H]1C[C@H]2C(=O)NC3(CCC3)C(=O)N(C)[C@@H](C3CCCC3)C(=O)N(C)[C@H](C(=O)N3CCOCC3)CC(=O)N(C)[C@@H](CC(C)C)C(=O)N[C@@H]([C@@H](C)CC)C(=O)N(C)CC(=O)N(C)[C@H]3CC=CCN(C3=O)[C@@H](Cc3ccc(C(F)(F)F)cc3)C(=O)N(C)CC(=O)N[C@@H](CCc3cc(F)c(C(F)(F)F)c(F)c3)C(=O)N2C1 [PP0832],–,C (A compound having a KD ratio of 0.1 or more and less than 3 is denoted as C),C (A compound having a KD ratio of 0.1 or more and less than 3 is denoted as C),–,–,0.21 nM
CCCN1C(=O)[C@@H]2CCN2C(=O)CN(C)C(=O)[C@H]([C@@H](C)CC)NC(=O)[C@H](CC(C)C)N(C)C(=O)C[C@@H](C(=O)N(C)C)N(C)C(=O)[C@H](C2CCCC2)N(C)C(=O)C2(CCC2)NC(=O)[C@@H]2CCCN2C(=O)[C@H](CCc2ccc(C(F)(F)F)c(Cl)c2)NC(=O)CN(C)C(=O)[C@@H]1Cc1ccc(C(F)(F)F)cc1 [PP0441] ([NMeL]I[Sar][Aze][NPrPhe(4-CF3)][Sar][hPhe(3-Cl-4-CF3)]P[Ac4c][NMeGly(cPent)][NMeD]-NMe2; lactam N-11),0.072 nM,–,–,C (A compound having a KD ratio of 0.1 or more and less than 3 is denoted as C),C (A compound having a KD ratio of 0.1 or more and less than 3 is denoted as C),–
CCO[C@@H]1C[C@H]2C(=O)NC3(CCCC3)C(=O)N(C)[C@@H](C3CCCC3)C(=O)N(C)[C@H](C(=O)N(C)C)CC(=O)N(C)[C@@H](CC(C)C)C(=O)N[C@@H]([C@@H](C)CC)C(=O)N(C)CC(=O)N(C)[C@H]3CC(C)=CCN(C3=O)[C@@H](Cc3ccc(C(F)(F)F)cc3)C(=O)N(C)CC(=O)N[C@@H](CCc3cc(F)c(C(F)(F)F)c(F)c3)C(=O)N2C1 [PP1031],–,C (A compound having a KD ratio of 0.1 or more and less than 3 is denoted as C),C (A compound having a KD ratio of 0.1 or more and less than 3 is denoted as C),–,–,0.67 nM
CCCN1C(=O)CN(C)C(=O)CN(C)C(=O)[C@H]([C@@H](C)CC)NC(=O)[C@H](CC(C)C)N(C)C(=O)C[C@@H](C(=O)N2CCOCC2)N(C)C(=O)[C@H](C2CCCC2)N(C)C(=O)C(C)(C)NC(=O)[C@@H]2CCCN2C(=O)[C@H](CCc2ccc(C(F)(F)F)c(Cl)c2)NC(=O)CN(C)C(=O)[C@@H]1Cc1ccc(C(F)(F)F)cc1 [PP0230] ([NMeL]I[Sar][Sar][NPrPhe(4-CF3)][Sar][hPhe(3-Cl-4-CF3)]P[Aib][NMeGly(cPent)][NMeD]-Morpholide; lactam N-11),0.39 nM,B (a compound having 3 or more and less than 10 is denoted as B),C (A compound having a KD ratio of 0.1 or more and less than 3 is denoted as C),–,–,–
CCCOC[C@H]1C(=O)N[C@@H]([C@@H](C)CC)C(=O)N(C)CC(=O)N(C)[C@H]2C/C=C\CCN(C2=O)[C@@H](Cc2ccc(C(F)(F)F)cc2)C(=O)N(C)CC(=O)N[C@@H](CCc2cc(F)c(C(F)(F)F)c(F)c2)C(=O)N2C[C@@H](C)C[C@H]2C(=O)NC2(CC(C)(C)C2)C(=O)N(C)[C@@H](C2CCCC2)C(=O)N(C)[C@H](C(=O)N(C)CC)CC(=O)N1C [PP2043],–,A (a compound having 10 or more and less than 20 is denoted as A),A (a compound having 10 or more and less than 20 is denoted as A),–,–,0.21 nM
